What follows are substances tested on human PKA catalytic subunit C-alpha mRNA (assay: Inhibition of PKA catalytic subunit C-alpha mRNA levels in oligonucleotide-treated cells, quantitative real-time PCR). Conditions: Table 2, chimeric phosphorothioate 2'-MOE gapmers, averaged from two experiments.
Assay type: cell-based
Set-up: concentration or dose not given beside the values
Method: when cells reached 80% confluency, they were treated with oligonucleotide. For cells grown in 96-well plates, wells were washed once with 200 μL. OPTI-MEM™-1 reduced-serum medium (Gibco BRL) and then treated with 130 μL of OPTI-MEM™-1 containing 3.75 μg/mL LIPOFECTIN™ (Gibco BRL) and the desired concentration of oligonucleotide. After 4-7 hours of treatment, the medium was replaced with fresh medium. Cells were harvested 16-24 hours after oligonucleotide treatment.
Poly(A)+ mRNA was isolated according to Miura et al., Clin. Chem., 1996, 42, 1758-1764. Other methods for poly(A)+ mRNA isolation are taught in, for example, Ausubel, F. M. et al., Current Protocols in Molecular Biology, Volume 1, pp. 4.5.1-4.5.3, John Wiley & Sons, Inc., 1993. Briefly, for cells grown on 96-well plates, growth medium was removed from the cells and each well was washed with 200 μL cold PBS. 60 μL lysis buffer (10 mM Tris-HCl, pH 7.6, 1 mM EDTA, 0.5 M NaCl, 0.5% NP-40, 20 mM vanadyl-ribonucleoside complex) was added to each well, the plate was gently agitated and then incubated at room temperature for five minutes. 55 μL of lysate was transferred to Oligo d(T) coated 96-well plates (AGCT Inc., Irvine Calif.). Plates were incubated for 60 minutes at room temperature, washed 3 times with 200 μL of wash buffer (10 mM Tris-HCl pH 7.6, 1 mM EDTA, 0.3 M NaCl). After the final wash, the plate was blotted on paper towels to remove excess wash buffer and then air-dried for 5 minutes. 60 μL of elution buffer (5 mM Tris-HCl pH 7.6), preheated to 70° C. was added to each well, the plate was incubated on a 90° C. hot plate for 5 minutes, and the eluate was then transferred to a fresh 96-well plate.
Quantitat:ion of PKA catalytic subunit C-alpha mRNA levels was determined by real-time quantitative PCR using the ABI PRISM™ […] Sequence Detection System (PE-Applied Biosystems, Foster City, Calif.) according to manufacturer's instructions. This is a closed-tube, non-gel-based, fluorescence detection system which allows high-throughput quantitation of polymerase chain reaction (PCR) products in real-time. As opposed to standard PCR, in which amplification products are quantitated after the PCR is completed, products in real-time quantitative PCR are quantitated as they accumulate. This is accomplished by including in the PCR reaction an oligonucleotide probe that anneals specifically between the forward and reverse PCR primers, and contains two fluorescent dyes. A reporter dye (e.g., JOE, FAM, or VIC, obtained from either Operon Technologies Inc., Alameda, Calif. or PE-Applied Biosystems, Foster City, Calif.) is attached to the 5' end of the probe and a quencher dye (e.g., TAMRA, obtained from either Operon Technologies Inc., Alameda, Calif. or PE-Applied Biosystems, Foster City, Calif.) is attached to the 3' end of the probe. When the probe and dyes are intact, reporter dye emission is quenched by the proximity of the 3' quencher dye. During amplification, annealing of the probe to the target sequence creates a substrate that can be cleaved by the 5'-exonuclease activity of Taq polymerase. […] With each cycle, additional reporter dye molecules are cleaved from their respective probes, and the fluorescence intensity is monitored at regular intervals by laser optics built into the ABI PRISM™ 7700 Sequence Detection System. In each assay, a series of parallel reactions containing serial dilutions of mRNA from untreated control samples generates a standard curve that is used to quantitate the percent inhibition after antisense oligonucleotide treatment of test samples.
PCR reagents were obtained from PE-Applied Biosystems, Foster City, Calif. […]

Point of comparison: “102676 (antisense GAACATCTCCCCGCCGGGCA; chemistry not given here) [compound 102676]”, “% Inhibition of PKA catalytic subunit C-alpha mRNA levels” value 92%. Against it:
- 102614 (antisense CCCATCGCGGCGGCGGCGGC; chemistry not given here) [compound 102614] — lower, 77%
- 102619 (antisense TGCCCATCGCGGCGGCGGCG; chemistry not given here) [compound 102619] — lower, 70%
- 102624 (antisense GTTGCCCATCGCGGCGGCGG; chemistry not given here) [compound 102624] — lower, 81%
- 102629 (antisense GCGTTGCCCATCGCGGCGGC; chemistry not given here) [compound 102629] — lower, 79%
- 102633 (antisense CGGCGTTGCCCATCGCGGCG; chemistry not given here) [compound 102633] — lower, 81%
- 102636 (antisense GGCGGCGTTGCCCATCGCGG; chemistry not given here) [compound 102636] — lower, 41%
- 102640 (antisense GCGGCGGCGTTGCCCATCGC; chemistry not given here) [compound 102640] — lower, 87%
- 102645 (antisense CGGCGGCGGCGTTGCCCATC; chemistry not given here) [compound 102645] — lower, 84%
- 102649 (antisense GGCGGCGGCGGCGTTGCCCA; chemistry not given here) [compound 102649] — lower, 85%
- 102653 (antisense ATTCTTTCACGCTCTCCTGC; chemistry not given here) [compound 102653] — lower, 55%
- 102657 (antisense CAAACTGATCCAAGTGGGCT; chemistry not given here) [compound 102657] — lower, 73%
- 102660 (antisense CCAGCATCACCCGCCCGAAG; chemistry not given here) [compound 102660] — lower, 82%
- 102664 (antisense CTTCTGTTTGTCGAGGATCT; chemistry not given here) [compound 102664] — lower, 76%
- 102668 (antisense GCTTGCAGGATGCGCTTTTC; chemistry not given here) [compound 102668] — lower, 76%
- 102672 (antisense GTTGTCCTTGAAGGAGAACT; chemistry not given here) [compound 102672] — lower, 28%
- 102680 (antisense TAGATGAGATCCAGCGAGTG; chemistry not given here) [compound 102680] — lower, 33%
- 102684 (antisense GCGGCCCTTCACGCGCTTGG; chemistry not given here) [compound 102684] — lower, 63%
- 102688 (antisense TCTGCGAAGAAGGGCGGGTA; chemistry not given here) [compound 102688] — lower, 52%
- 102692 (antisense TCCTTCAAGTCAGAGCTGAA; chemistry not given here) [compound 102692] — lower, 67%
- 102696 (antisense AAACCACTTGTGGTTCTTGA; chemistry not given here) [compound 102696] — lower, 71%
- 102700 (antisense CTTCCTCATAGTCGTCAAAG; chemistry not given here) [compound 102700] — lower, 44%
- 102703 (antisense GGCATGCCCCTAAAACTCAG; chemistry not given here) [compound 102703] — lower, 26%
- 102707 (antisense GGAGCAGCTGGTGTTTCTGT; chemistry not given here) [compound 102707] — lower, 73%
- 102711 (antisense TTGGCGCTTCGTTCATTTGC; chemistry not given here) [compound 102711] — lower, 60%
- 102716 (antisense AAGCAACCCACTGAACATGT; chemistry not given here) [compound 102716] — lower, 63%
- 102720 (antisense GCTTCTCTTTAAAATGGATT; chemistry not given here) [compound 102720] — lower, 56%
- 102724 (antisense ACCCTCGCAGGATTGGCAGA; chemistry not given here) [compound 102724] — lower, 55%
- 102727 (antisense CGCTGCTGGGAGGAAAGACT; chemistry not given here) [compound 102727] — lower, 60%
- 102731 (antisense TGCAGGGATGCCCTCCCCAC; chemistry not given here) [compound 102731] — lower, 54%
- 102736 (antisense CCTTGAACCCCGGGCCGTGG; chemistry not given here) [compound 102736] — lower, 65%
- 102738 (antisense CAGGCAGCCCCTCCCCAGCA; chemistry not given here) [compound 102738] — lower, 31%
- 102741 (antisense AGCACAAATGAGAAAGTGGG; chemistry not given here) [compound 102741] — lower, 53%
- 102744 (antisense TGGCTCCCCAGCGGCTCCCC; chemistry not given here) [compound 102744] — lower, 77%
- 102747 (antisense CACACAGGTTGAATCGCCCC; chemistry not given here) [compound 102747] — lower, 81%
- 102750 (antisense TAGTTTTCAAATATGTTTAC; chemistry not given here) [compound 102750] — lower, 66%
